Assay results from PubChem BioAssay (NCI).
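Five compound concentrations were applied to cells in 96-well plates for 48 hours; endpoints were derived by simple linear interpolation of the resulting dose-response curve. The concentration for full growth arrest is given as TGI.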

What was measured:
Test in all cases: NCI anticancer screen, dose series, 48 h
[1] = test system: MDA-MB-435
[2] = test system: HT29 colon
[3] = test system: UACC-257 melanoma
[4] = test system: OVCAR-8 ovarian
[5] = test system: ACHN renal
[6] = test system: SF-295 CNS
[7] = test system: HL-60(TB) leukemia
[8] = test system: OVCAR-3 ovarian
[9] = test system: KM12 colon
[10] = test system: M14 melanoma
[11] = test system: SK-MEL-5 melanoma
[12] = test system: BT-549 breast
[13] = test system: SK-MEL-28 melanoma
[14] = test system: SF-539 CNS
[15] = test system: NCI-H226 lung
[16] = test system: COLO 205 colon
[17] = test system: SF-268 CNS
[18] = test system: HS 578T breast
[19] = test system: A549 NSCLC
[20] = test system: SNB-75 CNS
[21] = test system: DU-145 prostate
[22] = test system: 786-0 renal
[23] = test system: T-47D breast
[24] = test system: RXF 393 renal
[25] = test system: OVCAR-5 ovarian
[26] = test system: UACC-62 melanoma
[27] = test system: NCI-H460 lung
[28] = test system: IGROV1 ovarian
[29] = test system: EKVX NSCLC
[30] = test system: MALME-3M melanoma
[31] = test system: CAKI-1 renal
[32] = test system: SR leukemia
[33] = test system: HCT-116 colon
[34] = test system: SW-620 colon
[35] = test system: CCRF-CEM leukemia
[36] = test system: HOP-62 NSCLC
[37] = test system: SK-OV-3 ovarian
[38] = test system: OVCAR-4 ovarian
[39] = test system: U251 CNS
[40] = test system: HCT-15 colon
[41] = test system: PC-3 prostate
[42] = test system: TK-10 renal
[43] = test system: NCI/ADR-RES ovarian
[44] = test system: K-562 leukemia
[45] = test system: SK-MEL-2 melanoma
[46] = test system: MOLT-4 leukemia
[47] = test system: HCC-2998 colon
[48] = test system: A498 renal
[49] = test system: HOP-92 NSCLC
[50] = test system: NCI-H23 lung
[51] = test system: MCF7 breast
[52] = test system: RPMI-8226 leukemia
[53] = test system: MDA-MB-231 breast
[54] = test system: LOX IMVI melanoma
[55] = test system: SNB-19 CNS
[56] = test system: UO-31 renal
[57] = test system: SN12C renal

CCOC(=O)C[n+]1cccc(C2(c3cc4ccccc4[nH]3)OCCO2)c1 gave a TGI [1] of over 100 µM, a TGI [2] of over 100 µM and a TGI [3] of over 100 µM. The TGI [4] was over 100 µM, the TGI [5] was over 100 µM and the TGI [6] was over 100 µM. The TGI [7] was over 100 µM, the TGI [8] was over 100 µM and the TGI [9] was over 100 µM. It also gave a TGI [10] of over 100 µM, a TGI [11] of over 100 µM and a TGI [12] of over 100 µM. For the same compound, the TGI [13] was over 100 µM, the TGI [14] was over 100 µM and the TGI [15] was over 100 µM. It also gave a TGI [16] of over 100 µM, a TGI [17] of over 100 µM and a TGI [18] of over 100 µM. It also gave a TGI [19] of over 100 µM, a TGI [20] of over 100 µM and a TGI [21] of over 100 µM. For the same compound, the TGI [22] was over 100 µM, the TGI [23] was over 100 µM and the TGI [24] was over 100 µM. It also gave a TGI [25] of over 100 µM, a TGI [26] of over 100 µM and a TGI [27] of over 100 µM. It also gave a TGI [28] of over 100 µM, a TGI [29] of over 100 µM and a TGI [30] of over 100 µM. The TGI [31] was over 100 µM, the TGI [32] was over 100 µM and the TGI [33] was over 100 µM. It also gave a TGI [34] of over 100 µM, a TGI [35] of over 100 µM and a TGI [36] of over 100 µM. The TGI [37] was over 100 µM, the TGI [38] was over 100 µM and the TGI [39] was over 100 µM. For the same compound, the TGI [40] was over 100 µM, the TGI [41] was over 100 µM and the TGI [42] was over 100 µM. The TGI [43] was over 100 µM, the TGI [44] was over 100 µM and the TGI [45] was over 100 µM. It also gave a TGI [46] of over 100 µM, a TGI [47] of over 100 µM and a TGI [48] of over 100 µM. It also gave a TGI [49] of over 100 µM, a TGI [50] of over 100 µM and a TGI [51] of over 100 µM. The TGI [52] was over 100 µM, the TGI [53] was over 100 µM and the TGI [54] was over 100 µM. It also gave a TGI [55] of over 100 µM and a TGI [56] of over 100 µM.
CCOC(=O)C(CC(C)C)NC(=O)CSc1nnc(COc2ccc(Cl)cc2)n1-c1ccccc1 (centres undefined) showed a TGI [1] of 35.6 µM, a TGI [2] of 32.7 µM and a TGI [3] of 23.2 µM. It also gave a TGI [5] of 26 µM, a TGI [7] of 43.4 µM and a TGI [8] of 24.7 µM. The TGI [9] was 39.7 µM, the TGI [10] was 31.9 µM and the TGI [11] was 32.6 µM. For the same compound, the TGI [12] was 32.1 µM, the TGI [13] was 33.1 µM and the TGI [14] was 42.3 µM. For the same compound, the TGI [15] was 48.5 µM, the TGI [16] was 36.2 µM and the TGI [17] was 35.6 µM. It also gave a TGI [57] of 28.9 µM, a TGI [18] of 60.9 µM and a TGI [19] of 45.9 µM. It also gave a TGI [20] of 32 µM, a TGI [21] of 32.4 µM and a TGI [22] of 28.6 µM. It also gave a TGI [23] of 45.3 µM, a TGI [24] of 34.3 µM and a TGI [25] of 39.4 µM. It also gave a TGI [26] of 30.7 µM, a TGI [27] of 29.3 µM and a TGI [28] of 29.2 µM. It also gave a TGI [30] of 37.8 µM, a TGI [32] of 15.6 µM and a TGI [33] of 28 µM. The TGI [34] was 49.7 µM, the TGI [35] was 23.8 µM and the TGI [36] was 36.8 µM. For the same compound, the TGI [37] was 59.8 µM, the TGI [38] was 36.2 µM and the TGI [39] was 33.4 µM. It also gave a TGI [40] of 37.1 µM, a TGI [41] of 30.8 µM and a TGI [42] of 33.1 µM. For the same compound, the TGI [43] was 44.3 µM, the TGI [44] was over 100 µM and the TGI [45] was 30 µM. For the same compound, the TGI [46] was over 100 µM, the TGI [47] was 27.4 µM and the TGI [48] was 28.2 µM. It also gave a TGI [49] of 39.8 µM, a TGI [50] of 29.5 µM and a TGI [51] of 35 µM. The TGI [52] was 54.5 µM, the TGI [53] was 30.6 µM and the TGI [54] was 28.9 µM. The TGI [55] was 31.6 µM and the TGI [56] was 3.68 µM.
